From patent publication US9302999B2, “Substituted triazoles as herbicides” (E. I. DU PONT DE NEMOURS AND COMPANY, priority 2012, dated 2016)

Experiments:
Assay type in all cases: in vivo
[1] = system: morningglory (Ipomoea spp.); experiment: Test A pre-/postemergence: morningglory
Summary of the method: (§1)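 Each species received preemergence soil-directed spraying and, at the same time, postemergence treatment of seedlings 2–10 cm tall. Formulation: non-phytotoxic solvent mixture including surfactant. Response assessed visually about ten days on, relative to untreated controls, 0–100 scale.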

[2] = system: foxtail, giant (giant foxtail, Setaria faberii); experiment: Test C pre-/postemergence: foxtail, giant
Summary of the method: (§2)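 Preemergence on seeds in loam/sand, postemergence on 2–18 cm (1–4-leaf) plants in peat-based medium; compounds in non-phytotoxic solvent with surfactant. After 13–15 days in greenhouse, visual rating versus controls, 0 (no effect) to 100 (complete control).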

[3] = system: pigweed (Amaranthus retroflexus); experiment: Test C pre-/postemergence: pigweed
Summary of the method: as §2

[4] = system: ryegrass, Italian (Italian ryegrass, Lolium multiflorum); experiment: Test C pre-/postemergence: ryegrass, Italian
Summary of the method: as §2

[5] = system: pigweed (Amaranthus retroflexus); experiment: Test A pre-/postemergence: pigweed
Summary of the method: as §1

[6] = system: kochia (Kochia scoparia); experiment: Test C pre-/postemergence: kochia
Summary of the method: as §2

[7] = system: corn (Zea mays); experiment: Test A pre-/postemergence: corn
Summary of the method: as §1

[8] = system: lambsquarters (Chenopodium album); experiment: Test C pre-/postemergence: lambsquarters
Summary of the method: as §2

[9] = system: morningglory (Ipomoea coccinea); experiment: Test C pre-/postemergence: morningglory
Summary of the method: as §2

[10] = system: velvetleaf (Abutilon theophrasti); experiment: Test A pre-/postemergence: velvetleaf
Summary of the method: as §1

[11] = system: chickweed (common chickweed, Stellaria media); experiment: Test C postemergence: chickweed
Summary of the method: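 Greenhouse pot test; foliar postemergence treatment at 1- to 4-leaf stage. Rated visually at 13 to 15 days on a 0–100 control scale relative to untreated plants.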

[12] = system: wheat (Triticum aestivum); experiment: Test A pre-/postemergence: wheat
Summary of the method: as §1

[13] = Postemergence, 125 g ai/ha, 0 to 100 scale, 0 is no effect, 100 is complete control
[14] = Postemergence, 500 g ai/ha, 0 to 100 scale, 0 is no effect, 100 is complete control
[15] = Preemergence, 125 g ai/ha, 0 to 100 scale where 0 is no effect and 100 is complete control
[16] = Preemergence, 500 g ai/ha, 0 to 100 scale (0 no effect, 100 complete control)
[17] = Postemergence, 31 g ai/ha, scale 0 to 100 (0 no effect, 100 complete control)
[18] = Postemergence, 62 g ai/ha, scale 0 to 100 (0 no effect, 100 complete control)
[19] = Postemergence, 125 g ai/ha, scale 0 to 100, 0 no effect, 100 complete control
[20] = Postemergence, 250 g ai/ha, scale 0 to 100
[21] = Preemergence, 31 g ai/ha, scale 0 (no effect) to 100 (complete control)
[22] = Preemergence, 62 g ai/ha, scale of 0 to 100, 0 is no effect, 100 is complete control
[23] = Preemergence, 125 g ai/ha, scale 0 to 100, 0 no effect, 100 complete control
[24] = Preemergence, 250 g ai/ha, scale 0 to 100, 0 no effect, 100 complete control
[25] = Postemergence, 250 g ai/ha, scale 0 to 100 (0 no effect, 100 complete control)
[26] = 31 g ai/ha, scale 0 to 100 (0 no effect, 100 complete control)
[27] = 62 g ai/ha, scale 0 to 100 (0 no effect, 100 complete control)
[28] = 125 g ai/ha, scale 0 to 100, 0 no effect, 100 complete control
[29] = Postemergence, 500 g ai/ha, visual rating on 0 to 100 scale (0 no effect, 100 complete control), approximately ten days
[30] = Preemergence, 31 g ai/ha, scale of 0 to 100, 0 is no effect, 100 is complete control

## CCOc1nn(-c2ccc(F)cc2)nc1Cc1ccnc(C(F)F)c1 [Compound 195]
[1]; [13]
  Plant response rating, Morningglory: 80
[1]; [14]
  Morningglory plant response rating: 100
[1]; [15]
  Plant response rating, Morningglory: 50
[1]; [16]
  Plant response rating, Morningglory: 60
[2]; [17]
  Plant response rating, Foxtail, Giant: 35
[2]; [18]
  Plant response rating, Foxtail, Giant: 35
[2]; [19]
  Plant response rating, Foxtail, Giant: 75
[2]; [20]
  Plant response rating, Foxtail, Giant: 90
[2]; [21]
  Plant response rating, Foxtail, Giant: 98
[2]; [22]
  Plant response rating, Foxtail, Giant: 98
[2]; [23]
  Plant response rating, Foxtail, Giant: 100
[2]; [24]
  Plant response rating, Foxtail, Giant: 100
[3]; [17]
  Plant response rating, Pigweed: 95
[3]; [18]
  Plant response rating, Pigweed: 95
[3]; [19]
  Plant response rating, Pigweed: 98
[3]; [25]
  Plant response rating, Pigweed: 98
[3]; [21]
  Plant response rating, Pigweed: 98
[3]; [22]
  Plant response rating, Pigweed: 98
[3]; [23]
  Plant response rating, Pigweed: 100
[3]; [24]
  Plant response rating, Pigweed: 100
[4]; [17]
  Plant response rating, Ryegrass, Italian: 25
[4]; [18]
  Plant response rating, Ryegrass, Italian: 55
[4]; [19]
  Plant response rating, Ryegrass, Italian: 60
[4]; [25]
  Plant response rating, Ryegrass, Italian: 60
[4]; [21]
  Plant response rating, Ryegrass, Italian: 50
[4]; [22]
  Plant response rating, Ryegrass, Italian: 80
[4]; [23]
  Plant response rating, Ryegrass, Italian: 90
[4]; [24]
  Plant response rating, Ryegrass, Italian: 90
[5]; [13]
  Plant response rating, Pigweed: 100
[5]; [14]
  Pigweed plant response rating: 100
[5]; [15]
  Plant response rating, Pigweed: 100
[5]; [16]
  Plant response rating, Pigweed: 100
[6]; [17]
  Plant response rating, Kochia: 75
[6]; [18]
  Plant response rating, Kochia: 85
[6]; [19]
  Plant response rating, Kochia: 90
[6]; [25]
  Plant response rating, Kochia: 95
[6]; [21]
  Plant response rating, Kochia: 60
[6]; [22]
  Plant response rating, Kochia: 75
[6]; [24]
  Plant response rating, Kochia: 95
[7]; [13]
  Plant response rating, Corn: 30
[7]; [14]
  Corn plant response rating: 60
[7]; [15]
  Plant response rating, Corn: 20
[7]; [16]
  Plant response rating, Corn: 30
[8]; [17]
  Plant response rating, Lambsquarters: 95
[8]; [18]
  Plant response rating, Lambsquarters: 95
[8]; [19]
  Plant response rating, Lambsquarters: 95
[8]; [25]
  Plant response rating, Lambsquarters: 95
[8]; [21]
  Plant response rating, Lambsquarters: 55
[8]; [22]
  Plant response rating, Lambsquarters: 80
[8]; [23]
  Plant response rating, Lambsquarters: 90
[8]; [24]
  Plant response rating, Lambsquarters: 95
[9]; [17]
  Plant response rating, Morningglory: 65
[9]; [18]
  Plant response rating, Morningglory: 90
[9]; [19]
  Plant response rating, Morningglory: 90
[9]; [25]
  Plant response rating, Morningglory: 95
[9]; [21]
  Plant response rating, Morningglory: 30
[9]; [22]
  Plant response rating, Morningglory: 50
[9]; [23]
  Plant response rating, Morningglory: 75
[9]; [24]
  Plant response rating, Morningglory: 90
[10]; [13]
  Plant response rating, Velvetleaf: 90
[10]; [14]
  Velvetleaf plant response rating: 100
[10]; [15]
  Plant response rating, Velvetleaf: 70
[10]; [16]
  Plant response rating, Velvetleaf: 80
[11]; [26]
  Plant response rating, Chickweed: 95
[11]; [27]
  Plant response rating, Chickweed: 95
[11]; [28]
  Plant response rating, Chickweed: 98
[11]; 250 g ai/ha, scale 0 to 100
  Plant response rating, Chickweed: 98
[12]; [13]
  Plant response rating, Wheat: 30
[12]; [14]
  Wheat plant response rating: 30
[12]; [15]
  Plant response rating, Wheat: 20
[12]; [16]
  Plant response rating, Wheat: 50

## CCCc1nn(-c2ccc(F)cc2)nc1Cc1ccnc(C(F)(F)F)c1 [Compound 153]
[1]; [13]
  Plant response rating, Morningglory: 90
[1]; [29]
  Morningglory plant response rating: 100
[1]; [15]
  Plant response rating, Morningglory: 80
[1]; [16]
  Plant response rating, Morningglory: 100
[2]; [17]
  Plant response rating, Foxtail, Giant: 45
[2]; [18]
  Plant response rating, Foxtail, Giant: 80
[2]; [19]
  Plant response rating, Foxtail, Giant: 90
[2]; [20]
  Plant response rating, Foxtail, Giant: 95
[2]; [30]
  Plant response rating, Foxtail, Giant: 100
[2]; [22]
  Plant response rating, Foxtail, Giant: 100
[2]; [23]
  Plant response rating, Foxtail, Giant: 100
[2]; [24]
  Plant response rating, Foxtail, Giant: 100
[3]; [17]
  Plant response rating, Pigweed: 95
[3]; [18]
  Plant response rating, Pigweed: 95
[3]; [19]
  Plant response rating, Pigweed: 98
[3]; [20]
  Plant response rating, Pigweed: 98
[3]; [30]
  Plant response rating, Pigweed: 100
[3]; [22]
  Plant response rating, Pigweed: 100
[3]; [23]
  Plant response rating, Pigweed: 100
[3]; [24]
  Plant response rating, Pigweed: 100
[4]; [17]
  Plant response rating, Ryegrass, Italian: 30
[4]; [18]
  Plant response rating, Ryegrass, Italian: 35
[4]; [19]
  Plant response rating, Ryegrass, Italian: 60
[4]; [20]
  Plant response rating, Ryegrass, Italian: 65
[4]; [30]
  Plant response rating, Ryegrass, Italian: 60
[4]; [22]
  Plant response rating, Ryegrass, Italian: 90
[4]; [23]
  Plant response rating, Ryegrass, Italian: 90
[4]; [24]
  Plant response rating, Ryegrass, Italian: 90
[5]; [13]
  Plant response rating, Pigweed: 100
[5]; [29]
  Pigweed plant response rating: 100
[5]; [15]
  Plant response rating, Pigweed: 100
[5]; [16]
  Plant response rating, Pigweed: 100
[6]; [17]
  Plant response rating, Kochia: 90
[6]; [18]
  Plant response rating, Kochia: 90
[6]; [19]
  Plant response rating, Kochia: 90
[6]; [20]
  Plant response rating, Kochia: 90
[7]; [13]
  Plant response rating, Corn: 60
[7]; [29]
  Corn plant response rating: 80
[7]; [15]
  Plant response rating, Corn: 70
[7]; [16]
  Plant response rating, Corn: 80
[8]; [17]
  Plant response rating, Lambsquarters: 95
[8]; [18]
  Plant response rating, Lambsquarters: 95
[8]; [19]
  Plant response rating, Lambsquarters: 95
[8]; [20]
  Plant response rating, Lambsquarters: 95
[8]; [30]
  Plant response rating, Lambsquarters: 95
[8]; [22]
  Plant response rating, Lambsquarters: 100
[8]; [23]
  Plant response rating, Lambsquarters: 100
[8]; [24]
  Plant response rating, Lambsquarters: 100
[9]; [17]
  Plant response rating, Morningglory: 40
[9]; [18]
  Plant response rating, Morningglory: 80
[9]; [19]
  Plant response rating, Morningglory: 95
[9]; [20]
  Plant response rating, Morningglory: 95
[9]; [30]
  Plant response rating, Morningglory: 20
[9]; [22]
  Plant response rating, Morningglory: 30
[9]; [23]
  Plant response rating, Morningglory: 50
[9]; [24]
  Plant response rating, Morningglory: 50
[10]; [13]
  Plant response rating, Velvetleaf: 100
[10]; [29]
  Velvetleaf plant response rating: 100
[10]; [15]
  Plant response rating, Velvetleaf: 80
[10]; [16]
  Plant response rating, Velvetleaf: 100
[11]; [26]
  Plant response rating, Chickweed: 95
[11]; [27]
  Plant response rating, Chickweed: 95
[11]; [28]
  Plant response rating, Chickweed: 95
[11]; 250 g ai/ha, scale 0 to 100
  Plant response rating, Chickweed: 95
[12]; [13]
  Plant response rating, Wheat: 60
[12]; [29]
  Wheat plant response rating: 70
[12]; [15]
  Plant response rating, Wheat: 50
[12]; [16]
  Plant response rating, Wheat: 70
